Test results as given in publication PMC9823356, “Inhibition of Cancer Cell Proliferation and Bacterial Growth by Silver(I) Complexes Bearing a CH3-Substituted Thiadiazole-Based Thioamide” (Molecules, 2023).
≈ marks a conversion by molar mass, not a printed value. Where “and” joins values, the source holds several entries; their conditions need not be identical. Equal entries are not always repeated. Where two headings read alike, the source gives them in different places. Blank lines part the entries; values can stand above or below the compound they belong to.

What was measured:
[1] = tested on: Escherichia coli (E. coli); assay: In vitro antibacterial activity, progressive double dilutions, culture turbidity; assay type: cell-based; settings: for MIC: ampicillin reference against E.coli (BL21)
Text: (§1) The growth of bacteria was estimated by measuring the turbidity of the culture, as previously reported. […] The pH of the media was adjusted to 7.0.

[2] = tested on: MRC5 human normal lung cells; assay: MTT cytostatic/cytotoxic assay; assay type: cell-based; settings: MRC5, 48 h treatment; for IC50: cytocidal/cytotoxic; for GI50: growth inhibition; for TGI: total growth inhibition
Method: (§2) The cell lines were obtained from the American Type of Culture collection (ATCC), except HuP-T3 which was kindly donated from University of Crete, School of Medicine, Greece, and were grown in different culture medium according to the instructions.
(§3) For the determination of the cell viability, it was employed the MTT assay. Cells were plated in 96-well plate at a density of 1 × 10^4 cells/mL per well and maintained for 72 h at 37 °C in a 5% CO2 incubator and grown as monolayers. […] The viability of cultured cells was estimated by a (3-(4,5-imethylthiazol-2-yl)-2,5-diphenyltetrazolium bromide (MTT) metabolic assay as previously described.
(§4) In brief, MTT (Sigma, St Louis, Missouri, USA) was dissolved in PBS in a concentration of 5 mg/mL, filter sterilized, and stored at 4 °C. Then, 50 μL of stock solution was added to each culture and incubated for 3 h at 37 °C. Formazan crystals were solubilized by DMSO (100 μL). Absorbance of the converted dye was measured at a wavelength of 540 nm on ELISA reader (VersaMax Microplate Reader Orleans, USA). […] Using seven absorbance measurements [time 24 h (Ct24), control growth 72 h (Ct72), and test growth in the presence of drug at five concentration levels (Tt72x)], the percentage of growth was calculated at each level of the drug concentrations. The percentage growth inhibition was calculated according to National Cancer Institute (NCI) as: {[(Tt72x) − (Ct24)]/[(Ct72) − (Ct24)]} × 100 for concentrations for which Tt72x>Ct24 and {(Tt72x) − (Ct24)]/(Ct24)} × 100 for concentrations for which Tt72x<Ct24. […] All experiments were carried out in triplicate. A significant difference was presumed to exist when p ≤ 0.05 (two tailed paired t test).

[3] = tested on: Bacillus cereus (B. cereus); assay: In vitro antibacterial activity, progressive double dilutions, culture turbidity; assay type: cell-based
Text: as §1

[4] = tested on: Bacillus subtilis (B. subtilis); assay: as above; assay type: cell-based
Text: as §1

[5] = tested on: Staphylococcus aureus (S. aureus); assay: as above; assay type: cell-based
Text: as §1

[6] = tested on: DMS114 small cell lung cancer cells; assay: MTT cytostatic/cytotoxic assay; assay type: cell-based, human; settings: DMS114, 48 h treatment; for LC50: cytocidal/cytotoxic, read-out: IC50 (the source's name); for GI50: growth inhibition; for TGI: total growth inhibition
Method: as §2, §3
as §4, with “Using seven absorbance measurements [time 24 h (Ct24), control growth 72 h (Ct72), and test growth in the presence of drug at five concentration levels (Tt72x)], the percentage of growth was calculated at each level of the drug concentrations.” left out

[7] = tested on: SKOV-3 ovarian cancer cells; assay: MTT cytostatic/cytotoxic assay; assay type: cell-based, human; settings: SKOV-3, 48 h treatment; for LC50: cytocidal/cytotoxic, read-out: IC50 (the source's name); for GI50: growth inhibition; for TGI: total growth inhibition
Method: as §2, §3
as §4, with “Using seven absorbance measurements [time 24 h (Ct24), control growth 72 h (Ct72), and test growth in the presence of drug at five concentration levels (Tt72x)], the percentage of growth was calculated at each level of the drug concentrations.” left out

[8] = tested on: Hup-T3 pancreatic adenocarcinoma cells; assay: MTT cytostatic/cytotoxic assay; assay type: cell-based, human; settings: Hup-T3, 48 h treatment; for IC50: cytocidal/cytotoxic; for GI50: growth inhibition; for TGI: total growth inhibition
Method: as §2, §3, §4

[9] = tested on: PC3 prostate adenocarcinoma cells; assay: MTT cytostatic/cytotoxic assay; assay type: cell-based, human; settings: PC3, 48 h treatment; for LC50: cytocidal/cytotoxic, read-out: IC50 (the source's name); for GI50: growth inhibition; for TGI: total growth inhibition
Method: as §2, §3, §4

[10] = Reduction of hydrogen peroxide; settings: compound 0.1 mM, 20 min, phosphate buffer pH 7.4
Method: In vitro antioxidant activity studies for 1–4 and their free ligands were performed in order to determine their ability to scavenge DPPH, and ABTS free radicals and to reduce H2O2 and was compared with the antioxidant capacity of reference compounds (NDGA, BHT, trolox and ascorbic acid).
The absorbance was measured at 230 nm after 20 min. The antioxidant activity of the compounds was expressed as percent reduction of H2O2 (%H2O2). Ascorbic acid (or vitamin C) was used as an appropriate standard.

[11] = tested on: calf-thymus (CT) DNA; assay: CT DNA interaction by UV-visible spectroscopy; settings: DMSO solution, upon addition of CT DNA; + hyperchromism, – hypochromism
Method: The UV-visible spectra of CT DNA solution (1.5 × 10^−4 M) were recorded in the presence of each compound at diverse [compound]/[DNA] mixing ratios (r).

[12] = Escherichia coli, read-out: MIC
[13] = value in parentheses, mean ± SD, read-out: IC50
[14] = Bacillus cereus, read-out: IC50
[15] = Bacillus subtilis, read-out: IC50
[16] = Bacillus subtilis, read-out: MIC
[17] = Escherichia coli, read-out: IC50
[18] = Staphylococcus aureus, read-out: IC50
[19] = Staphylococcus aureus, read-out: MIC

MIC [1, 12]: 100 µg/mL (≈ 286 µM)
Structure (SMILES): CC1(C)S[C@@H]2[C@H](NC(=O)[C@H](N)c3ccccc3)C(=O)N2[C@H]1C(=O)O [Ampicillin, reference compound]

Structure (SMILES): N.N.[Cl][Pt][Cl] [Cisplatin, reference compound]
IC50 [2]: 36 ± 2 µM
GI50 [2]: 8 ± 1 µM
TGI [2]: 24±2 μΜ

Structure (SMILES): Cc1n[nH]c(=S)s1.[Cl][Ag].c1ccc(P(c2ccccc2)c2ccccc2)cc1.c1ccc(P(c2ccccc2)c2ccccc2)cc1 [Compound 1, [AgCl(mtdztH)(PPh3)2]]
IC50 [3]: 81 µg/mL
MIC [3]: 100 µg/mL
IC50 [3, 13]: 101 ± 10.3 µM
IC50 [4]: 21 µg/mL
MIC [4]: 100 µg/mL
IC50 [4, 13]: 26 ± 4 µM
IC50 [1]: higher than 100 μg/mL
activity against the Gram-(–) E. coli bacteria (in words) [1]: negligible activity
MIC [1]: higher than 100 μg/mL
IC50 [5]: 16 µg/mL
MIC [5]: 100 µg/mL
IC50 [5, 13]: 20 ± 3.2 µM
IC50 [2]: 9.2 ± 0.8 µM
GI50 [2]: 3 ± 0.5 µM
TGI [2]: 5.2±0.5 μΜ
LC50 [6]: 4.5 ± 0.3 µM
GI50 [6]: 1.9 ± 0.1 µM
TGI [6]: 3.1±0.1 μΜ
LC50 [7]: 5.7 ± 0.4 µM
GI50 [7]: 1.2 ± 0.2 µM
TGI [7]: 3.1±0.4 μΜ
IC50 [8]: 9.2 ± 0.3 µM
GI50 [8]: 2.2 ± 0.2 µM
TGI [8]: 4.1±0.3 μΜ
LC50 [9]: 9.6 ± 0.5 µM
GI50 [9]: 3 ± 0.3 µM
TGI [9]: 5.7±0.5 μΜ
H2O2 reducing ability (%H2O2) [10]: 74.85±0.79%

Structure (SMILES): Cc1nnc([S][Ag])s1.c1ccc(P(c2ccccc2)c2ccccc2)cc1.c1ccc(P(c2ccccc2)c2ccccc2)cc1.c1ccc(P(c2ccccc2)c2ccccc2)cc1 [Compound 2, [Ag(mtdzt)(PPh3)3]]
IC50 [3]: 12.5 µg/mL
MIC [3]: 100 µg/mL
IC50 [3, 13]: 12 ± 1.4 µM
IC50 [4]: 20 µg/mL
MIC [4]: 100 µg/mL
IC50 [4, 13]: 19 ± 2.8 µM
IC50 [1]: higher than 100 μg/mL
activity against the Gram-(–) E. coli bacteria (in words) [1]: negligible activity
MIC [1]: higher than 100 μg/mL
IC50 [5]: 17 µg/mL
MIC [5]: 100 µg/mL
IC50 [5, 13]: 16 ± 2.6 µM
IC50 [2]: 4.1 ± 0.06 µM
GI50 [2]: 2 ± 0.02 µM
TGI [2]: 3.0±0.05 μΜ
LC50 [6]: 4 ± 0.25 µM
GI50 [6]: 1.2 ± 0.05 µM
TGI [6]: 2.6±0.1 μΜ
LC50 [7]: 4.1 ± 0.3 µM
GI50 [7]: 1.9 ± 0.2 µM
TGI [7]: 3.0±0.3 μΜ
IC50 [8]: 4.5 ± 0.2 µM
GI50 [8]: 1.9 ± 0.2 µM
TGI [8]: 3.2±0.2 μΜ
LC50 [9]: 4.4 ± 0.15 µM
GI50 [9]: 2 ± 0.05 µM
TGI [9]: 3.2±0.12 μΜ
H2O2 reducing ability (%H2O2) [10]: 80.59±0.55% and 80%

Structure (SMILES): O=C1O[C@H]([C@@H](O)CO)C(O)=C1O [L-ascorbic acid, reference compound]
H2O2 reducing ability (%H2O2) [10]: 60.80±0.20%

Structure (SMILES): c1ccc(P(c2ccccc2)c2ccccc2)cc1 [PPh3, thriphenylphosphine, reference compound]
IC50 [3]: 70 µg/mL
MIC [3]: higher than 100 μg/mL
IC50 [3, 13]: 267 ± 9 µM
IC50 [4]: higher than 100 μg/mL
MIC [4]: higher than 100 μg/mL
IC50 [4, 13]: > 380 µM
IC50 [1]: 51 µg/mL
MIC [1]: higher than 100 μg/mL
IC50 [1, 13]: 194 ± 2 µM
IC50 [5]: 70 µg/mL
MIC [5]: higher than 100 μg/mL
IC50 [5, 13]: 267 ± 2.2 µM
H2O2 reducing ability (%H2O2) [10]: 87.96±1.32%

IC50 [3, 14]: > 100 µg/mL
MIC ([3]; Bacillus cereus, read-out: MIC): > 100 µg/mL
IC50 [4, 15]: > 100 µg/mL
MIC [4, 16]: > 100 µg/mL
MIC [1, 12]: > 100 µg/mL
IC50 [1, 17]: > 100 µg/mL
IC50 [5, 18]: > 100 µg/mL
MIC [5, 19]: > 100 µg/mL
Structure (SMILES): c1ccc(P(CCP(c2ccccc2)c2ccccc2)c2ccccc2)cc1 [dppe, 1,2-bis(diphenylphosphino)ethane, reference compound]
H2O2 reducing ability (%H2O2) [10]: 92.64±0.71%

Structure (SMILES): Cc1nnc(S)s1 [mtdztH, 5-methyl-1,3,4-thiadiazole-2-thiol, reference compound]
IC50 [3, 14]: 21 µg/mL
MIC ([3]; Bacillus cereus, read-out: MIC): > 100 µg/mL
IC50 ([3]; Bacillus cereus, value in parentheses, mean ± SD, read-out: IC50): 159 ± 8.9 µM
IC50 [4, 15]: 53 µg/mL
MIC [4, 16]: > 100 µg/mL
IC50 ([4]; Bacillus subtilis, value in parentheses, mean ± SD, read-out: IC50): 401 ± 16.2 µM
MIC [1, 12]: > 100 µg/mL
IC50 [1, 17]: 30 µg/mL
IC50 ([1]; Escherichia coli, value in parentheses, mean ± SD, read-out: IC50): 227 ± 6 µM
IC50 [5, 18]: 21 µg/mL
MIC [5, 19]: > 100 µg/mL
IC50 ([5]; Staphylococcus aureus, value in parentheses, mean ± SD, read-out: IC50): 159 ± 9 µM
H2O2 reducing ability (%H2O2) [10]: 97.17±0.10%
percentage of hyper-/hypochromism ΔA/Aο [11]: –12%
